Laboratory results: patent US9073911B2, “Pyrazole derivatives” (HOFFMANN-LA ROCHE INC., priority 2011, dated 2015)
Structures can show the parent of a compound that is named as a salt.

How the values were obtained:
mouse TAAR1 = mouse TAAR1 (Mus musculus (Mouse), UniProt Q923Y8); assay: Radioligand binding assay on mouse TAAR1; conditions: membranes of HEK-293 cells stably expressing mouse TAAR1; first value of cell mouse/rat
Experimental: (§1) Construction of TAAR Expression Plasmids and Stably Transfected Cell Lines
(§2) For the construction of expression plasmids the coding sequences of human, rat and mouse TAAR 1 were amplified from genomic DNA essentially as described by Lindemann et al.. The Expand High Fidelity PCR System (Roche Diagnostics) was used with 1.5 mM Mg^2+ and purified PCR products were cloned into pCR2.1-TOPO cloning vector (Invitrogen) following the instructions of the manufacturer. PCR products were subcloned into the pIRESneo2 vector (BD Clontech, Palo Alto, Calif.), and expression vectors were sequence verified before introduction in cell lines.
(§3) HEK293 cells (ATCC # CRL-1573) were cultured essentially as described by Lindemann et al. (2005). For the generation of stably transfected cell lines HEK293 cells were transfected with the pIRESneo2 expression plasmids containing the TAAR coding sequences (described above) with Lipofectamine 2000 (Invitrogen) according to the instructions of the manufacturer, and 24 hrs post transfection the culture medium was supplemented with 1 mg/ml G418 (Sigma, Buchs, Switzerland). After a culture period of about 10 d clones were isolated, expanded and tested for responsiveness to trace amines (all compounds purchased from Sigma) with the cAMP Biotrak Enzyme immunoassay (EIA) System (Amersham) following the non-acetylation EIA procedure provided by the manufacturer.
Radioligand Binding Assay on Mouse TAAR1
(§4) Membrane Preparation and Radioligand Binding.
HEK-293 cells stably expressing mouse TAAR1 were maintained at 37° C. and 5% CO2 in DMEM high glucose medium, containing fetal calf serum (10%, heat inactivated for 30 min at 56° C.), penicillin/streptomycin (1%), and 375 μg/ml geneticin (Gibco). Cells were released from culture flasks using trypsin/EDTA, harvested, washed twice with ice-cold PBS (without Ca^2+ and Mg^2+), pelleted at 1,000 rpm for 5 min at 4° C., frozen and stored at −80° C. Frozen pellets were suspended in 20 ml HEPES-NaOH (20 mM, pH 7.4) containing 10 mM EDTA and homogenized with a Polytron (PT 6000, Kinematica) at 14,000 rpm for 20 s. The homogenate was centrifuged at 48,000×g for 30 min at 4° C. Subsequently, the supernatant was removed and discarded, and the pellet resuspended in 20 ml HEPES-NaOH (20 mM, pH 7.4) containing 0.1 mM EDTA using the Polytron (20 s at 14,000 rpm). This procedure was repeated and the final pellet resuspended in HEPES-NaOH containing 0.1 mM EDTA and homogenized using the Polytron. Typically, aliquots of 2 ml membrane portions were stored at −80° C. With each new membrane batch the dissociation constant (Kd) was determined via a saturation curve. The TAAR1 radioligand ^3[H]—(S)-4-[(ethyl-phenyl-amino)-methyl]-4,5-dihydro-oxazol-2-ylamine (described in WO 2008/098857) was used at a concentration equal to the calculated Kd value, that was usually around 0.7 nM, resulting in the binding of approximately 0.5% of the radioligand and a specific binding representing approximately 70% of the total binding. Nonspecific binding was defined as the amount of ^3[H]—(S)-4-[(ethyl-phenyl-amino)-methyl]-4,5-dihydro-oxazol-2-ylamine bound in the presence of 10 μM unlabeled ligand. All compounds were tested at a broad range of concentrations ([…]) in duplicates. […] The 96 deep well plates were incubated for 1 hr at 4° C. Incubations were terminated by rapid filtration through Unifilter-96 plates (Packard Instrument Company) and glass filters GF/C (Perkin Elmer) presoaked for 1 hr in polyethylenimine (0.3%) and washed 3 times with 1 ml of cold binding buffer. After addition of 45 μl of Microscint 40 (PerkinElmer) the Unifilter-96 plate was sealed and after 1 hr the radioactivity counted using a TopCount Microplate Scintillation Counter (Packard Instrument Company).

rat TAAR1 = rat TAAR1 (Rattus norvegicus (Rat), UniProt Q923Y9); assay: Radioligand binding assay on rat TAAR1; conditions: membranes of HEK-293 cells stably expressing rat TAAR1; second value of cell mouse/rat
rat TAAR1, sequence (Q923Y9 whole entry): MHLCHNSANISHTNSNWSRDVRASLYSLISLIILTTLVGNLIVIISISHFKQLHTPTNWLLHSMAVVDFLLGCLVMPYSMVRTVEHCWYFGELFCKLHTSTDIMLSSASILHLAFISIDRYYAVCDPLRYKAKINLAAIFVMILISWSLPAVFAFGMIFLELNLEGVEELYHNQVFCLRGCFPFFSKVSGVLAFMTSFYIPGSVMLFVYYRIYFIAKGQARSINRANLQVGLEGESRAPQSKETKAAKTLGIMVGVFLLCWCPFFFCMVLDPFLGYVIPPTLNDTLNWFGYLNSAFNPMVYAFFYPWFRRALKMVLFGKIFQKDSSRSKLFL
Experimental: as §1, §2, §3
Radioligand Binding Assay on rat TAAR1
as §4
HEK-293 cells stably expressing rat TAAR1 were maintained at 37° C. and 5% CO2 in DMEM high glucose medium, containing fetal calf serum (10%, heat inactivated for 30 min at 56° C.), penicillin/streptomycin (1%), and 375 μg/ml geneticin (Gibco). Cells were released from culture flasks using trypsin/EDTA, harvested, washed twice with ice-cold PBS (without Ca^2+ and Mg^2+), pelleted at 1,000 rpm for 5 min at 4° C., frozen and stored at −80° C. Frozen pellets were suspended in 20 ml HEPES-NaOH (20 mM, pH 7.4) containing 10 mM EDTA and homogenized with a Polytron (PT 6000, Kinematica) at 14,000 rpm for 20 s. The homogenate was centrifuged at 48,000×g for 30 min at 4° C. Subsequently, the supernatant was removed and discarded, and the pellet resuspended in 20 ml HEPES-NaOH (20 mM, pH 7.4) containing 0.1 mM EDTA using the Polytron (20 s at 14,000 rpm). This procedure was repeated and the final pellet resuspended in HEPES-NaOH containing 0.1 mM EDTA and homogenized using the Polytron. Typically, aliquots of 2 ml membrane portions were stored at −80° C. With each new membrane batch the dissociation constant (Kd) was determined via a saturation curve.
Nonspecific binding was defined as the amount of ^3-[H]-(S)-4-[(ethyl-phenyl-amino)-methyl]-4,5-dihydro-oxazol-2-ylamine bound in the presence of 10 μM unlabeled ligand. All compounds were tested at a broad range of concentrations (10 pM to 10 μM) in duplicates. […] The 96 deep well plates were incubated for 1 hr at 4° C. Incubations were terminated by rapid filtration through Unifilter-96 plates (Packard Instrument Company) and glass filters GF/C (Perkin Elmer) presoaked for 1 hr in polyethylenimine (0.3%) and washed 3 times with 1 ml of cold binding buffer. After addition of 45 μl of Microscint 40 (PerkinElmer) the Unifilter-96 plate was sealed and after 1 hr the ratioactivity counted using a TopCount Microplate Scintillation Counter (Packard Instrument Company).

mouse TAAR1, sequence (Q923Y8 whole entry): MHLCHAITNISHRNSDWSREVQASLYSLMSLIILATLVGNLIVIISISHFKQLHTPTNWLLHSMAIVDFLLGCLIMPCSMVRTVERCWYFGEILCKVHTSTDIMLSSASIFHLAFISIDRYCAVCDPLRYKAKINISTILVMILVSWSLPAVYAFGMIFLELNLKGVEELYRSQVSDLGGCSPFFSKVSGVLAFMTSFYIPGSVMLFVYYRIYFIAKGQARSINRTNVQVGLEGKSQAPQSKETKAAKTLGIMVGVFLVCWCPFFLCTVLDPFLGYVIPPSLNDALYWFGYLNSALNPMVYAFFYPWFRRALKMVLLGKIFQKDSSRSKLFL

Compound: O=C(Nc1ccc([C@H]2CNCCO2)cc1)c1cc(-c2ccc(Cl)cc2)n[nH]1 [Example 14, (S)-3-(4-chlorophenyl)-N-(4-(morpholin-2-yl)phenyl)-1H-pyrazole-5-carboxamide hydrochloride]
- Ki (mouse TAAR1): 0.0017 µM
- Ki (rat TAAR1): 0.0028 µM

Compound: COc1ccccc1-c1cc(C(=O)Nc2ccc([C@H]3CNCCO3)cc2)[nH]n1 [Example 9, (S)-3-(2-methoxyphenyl)-N-(4-(morpholin-2-yl)phenyl)-1H-pyrazole-5-carboxamide hydrochloride]
- Ki (mouse TAAR1): 0.0014 µM
- Ki (rat TAAR1): 0.014 µM

Compound: O=C(Nc1ccc([C@H]2CNCCO2)cc1)c1ccn(-c2cnc(Cl)cn2)n1 [Example 50, (S)-1-(5-Chloropyrazin-2-yl)-N-(4-(morpholin-2-yl)phenyl)-1H-pyrazole-3-carboxamide hydrochloride]
- Ki (mouse TAAR1): 0.0027 µM
- Ki (rat TAAR1): 0.0091 µM

Compound: N#Cc1cccc(-c2cc(C(=O)Nc3ccc(C4CCNC4)cc3)[nH]n2)c1 (racemic) [Example 38, (rac) 3-(3-Cyanophenyl)-N-(4-(pyrrolidin-3-yl)phenyl)-1H-pyrazole-5-carboxamide hydrochloride]
- Ki (mouse TAAR1): 0.0021 µM
- Ki (rat TAAR1): 0.0042 µM

Compound: O=C(Nc1ccc([C@H]2CNCCO2)cc1)c1ccn(-c2ccnc(C(F)(F)F)n2)n1 [Example 54, (S)—N-(4-(Morpholin-2-yl)phenyl)-1-(2-(trifluoromethyl)pyrimidin-4-yl)-1H-pyrazole-3-carboxamide hydrochloride]
- Ki (mouse TAAR1): 0.0065 µM
- Ki (rat TAAR1): 0.0088 µM

Compound: O=C(Nc1ccc([C@@H]2CNCCO2)cc1)c1cc(-c2ccccc2Cl)n[nH]1 [Example 13, (R)-3-(2-chlorophenyl)-N-(4-(morpholin-2-yl)phenyl)-1H-pyrazole-5-carboxamide hydrochloride]
- Ki (mouse TAAR1): 0.0008 µM
- Ki (rat TAAR1): 0.001 µM

Compound: N#Cc1cccc(-c2cc(C(=O)Nc3ccc([C@H]4CNCCO4)cc3)n[nH]2)c1 [Example 20, (S)-5-(3-cyanophenyl)-N-(4-(morpholin-2-yl)phenyl)-1H-pyrazole-3-carboxamide hydrochloride]
- Ki (mouse TAAR1): 0.0022 µM
- Ki (rat TAAR1): 0.0074 µM

Compound: Cc1c(C(=O)Nc2ccc([C@H]3CNCCO3)cc2)n[nH]c1-c1cccc(C#N)c1 [Example 27, (S)-5-(3-cyanophenyl)-4-methyl-N-(4-(morpholin-2-yl)phenyl)-1H-pyrazole-3-carboxamide hydrochloride]
- Ki (mouse TAAR1): 0.0021 µM
- Ki (rat TAAR1): 0.0135 µM

Compound: Cn1nc(C(=O)Nc2ccc([C@H]3CNCCO3)cc2)cc1-c1ccccc1 [Example 18, (S)-1-methyl-N-(4-(morpholin-2-yl)phenyl)-5-phenyl-1H-pyrazole-3-carboxamide hydrochloride]
- Ki (mouse TAAR1): 0.0017 µM
- Ki (rat TAAR1): 0.0254 µM

Compound: CCn1nc(-c2cccc(C#N)c2)cc1C(=O)Nc1ccc([C@H]2CNCCO2)cc1 [Example 25, (S)-3-(3-cyanophenyl)-1-ethyl-N-(4-(morpholin-2-yl)phenyl)-1H-pyrazole-5-carboxamide hydrochloride]
- Ki (mouse TAAR1): 0.0051 µM
- Ki (rat TAAR1): 0.0078 µM

Compound: Cc1c(-c2ccccc2)n[nH]c1C(=O)Nc1ccc([C@H]2CNCCO2)cc1 [Example 6, (S)-4-methyl-N-(4-(morpholin-2-yl)phenyl)-3-phenyl-1H-pyrazole-5-carboxamide hydrochloride]
- Ki (mouse TAAR1): 0.0016 µM
- Ki (rat TAAR1): 0.008 µM

Compound: O=C(Nc1ccc([C@H]2CNCCO2)cc1)c1ccnn1-c1ccccc1 [Example 30, (S)—N-(4-(Morpholin-2-yl)phenyl)-1-phenyl-1H-pyrazole-5-carboxamide hydrochloride]
- Ki (mouse TAAR1): 0.143 µM
- Ki (rat TAAR1): 1.32 µM

Compound: O=C(Nc1ccc([C@@H]2CNCCO2)cc1)c1ccn(-c2ccc(F)cc2)n1 [Example 31, (R)-1-(4-Fluorophenyl)-N-(4-(morpholin-2-yl)phenyl)-1H-pyrazole-3-carboxamide hydrochloride]
- Ki (mouse TAAR1): 0.0013 µM
- Ki (rat TAAR1): 0.0024 µM

Compound: O=C(Nc1ccc([C@H]2CNCCO2)cc1)c1ccn(-c2ccc(OC(F)F)cc2)n1 [Example 45, (S)-1-(4-(Difluoromethoxy)phenyl)-N-(4-(morpholin-2-yl)phenyl)-1H-pyrazole-3-carboxamide hydrochloride]
- Ki (mouse TAAR1): 0.0018 µM
- Ki (rat TAAR1): 0.0014 µM

Compound: O=C(Nc1ccc([C@H]2CNCCO2)cc1)c1ccn(-c2ccc(F)cc2)n1 [Example 29, (S)-1-(4-Fluorophenyl)-N-(4-(morpholin-2-yl)phenyl)-1H-pyrazole-3-carboxamide hydrochloride]
- Ki (mouse TAAR1): 0.0011 µM
- Ki (rat TAAR1): 0.0024 µM

Compound: N#Cc1cc(-c2cc(C(=O)Nc3ccc([C@H]4CNCCO4)cc3)[nH]n2)ccc1F [Example 39, (S)-5-(3-Cyano-4-fluorophenyl)-N-(4-(morpholin-2-yl)phenyl)-1H-pyrazole-3-carboxamide hydrochloride]
- Ki (mouse TAAR1): 0.0014 µM
- Ki (rat TAAR1): 0.003 µM

Compound: O=C(Nc1ccc([C@@H]2CNCCO2)cc1)c1ccn(-c2ccc(OC(F)F)cc2)n1 [Example 46, (R)-1-(4-(Difluoromethoxy)phenyl)-N-(4-(morpholin-2-yl)phenyl)-1H-pyrazole-3-carboxamide hydrochloride]
- Ki (mouse TAAR1): 0.004 µM
- Ki (rat TAAR1): 0.0006 µM

Compound: O=C(Nc1ccc([C@H]2CNCCO2)cc1)c1ccn(-c2cncc(Cl)n2)n1 [Example 48, (S)-1-(6-Chloropyrazin-2-yl)-N-(4-(morpholin-2-yl)phenyl)-1H-pyrazole-3-carboxamide hydrochloride]
- Ki (mouse TAAR1): 0.0086 µM
- Ki (rat TAAR1): 0.0118 µM

Compound: Cn1nc(-c2ccc(F)cc2)cc1C(=O)Nc1ccc(C2CNCCO2)cc1 (stereo in doubt) [Example 22, (S)-3-(4-fluorophenyl)-1-methyl-N-(4-(morpholin-2-yl)phenyl)-1H-pyrazole-5-carboxamide hydrochloride]
- Ki (mouse TAAR1): 0.0023 µM
- Ki (rat TAAR1): 0.0022 µM

Compound: O=C(Nc1ccc([C@H]2CNCCO2)cc1)c1cc(-c2ccc(F)cc2)[nH]n1 [Example 3, (S)-3-(4-fluorophenyl)-N-(4-(morpholin-2-yl)phenyl)-1H-pyrazole-5-carboxamide hydrochloride]
- Ki (mouse TAAR1): 0.0008 µM
- Ki (rat TAAR1): 0.0027 µM

Compound: O=C(Nc1ccc([C@H]2CNCCO2)cc1)c1cc(-c2ccccc2Cl)n[nH]1 [Example 10, (S)-3-(2-chlorophenyl)-N-(4-(morpholin-2-yl)phenyl)-1H-pyrazole-5-carboxamide hydrochloride]
- Ki (mouse TAAR1): 0.0005 µM
- Ki (rat TAAR1): 0.0026 µM
